Reference: patent publication US20140081017A1, “Histone Deacetylase Inhibitors for Enhancing Activity of Antifungal Agents” (METHYLGENE INC., priority 2012, published 2014)
Converted amounts (≈) assume the structure as drawn. Like-named read-outs stand apart in the source and are kept apart here.

Columns and labels:
C. glabrata = assay: Checkerboard FIC assay in combination with fluconazole (MIC alone and in combination, FICI); assay type: cell-based, Candida glabrata; conditions: for FICI of combination resulting in fluconazole MIC of: 2 ug/mL / FICI of combination resulting in fluconazole MIC of: 4 ug/mL / FICI of combination resulting in fluconazole MIC of: 8 ug/mL: FICI calculated using a fluconazole MIC of 16 μg/mL; for FICI of combination resulting in fluconazole MIC of: 2 ug/mL (value in parenthesis) / FICI of combination resulting in fluconazole MIC of: 4 ug/mL (value in parenthesis) / FICI of combination resulting in fluconazole MIC of: 8 ug/mL (value in parenthesis): FICI using a fluconazole MIC of 128 μg/mL; for MIC: Nakaseomyces glabratus; for Multiple of compound MIC to synergize fluconazole MIC to 2 ug/mL / Multiple of compound MIC to synergize fluconazole MIC to 4 ug/mL / Multiple of compound MIC to synergize fluconazole MIC to 8 ug/mL: concentration in combination as multiple of the compound's MIC alone; for Multiple of compound MIC to synergize fluconazole MIC to 2 ug/mL: fluconazole MIC 2 ug/mL; for Multiple of compound MIC to synergize fluconazole MIC to 4 ug/mL: fluconazole MIC 4 ug/mL; for Multiple of compound MIC to synergize fluconazole MIC to 8 ug/mL: fluconazole MIC 8 ug/mL; for Concentration of Methylgene compound to synergize fluconazole MIC to 2 ug/mL / Concentration of Methylgene compound to synergize fluconazole MIC to 4 ug/mL / Concentration of Methylgene compound to synergize fluconazole MIC to 8 ug/mL: in combination with fluconazole; for Concentration of Methylgene compound to synergize fluconazole MIC to 2 ug/mL: fluconazole MIC lowered to 2 ug/mL; for Concentration of Methylgene compound to synergize fluconazole MIC to 4 ug/mL: fluconazole MIC lowered to 4 ug/mL; for Concentration of Methylgene compound to synergize fluconazole MIC to 8 ug/mL: fluconazole MIC lowered to 8 ug/mL
Procedure, shortened: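 A fluconazole synergy checkerboard was run against C. glabrata in MOPS-buffered RPMI (pH 7.0) for about 48 h at 35 °C. Each agent was diluted 2-fold, with one row and one column holding each agent alone for MIC determination. FICI was calculated from these MICs, using a 0.5 McFarland inoculum diluted 1:100 per CLSI.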

Candida albicans = assay: Minimal Inhibitory Concentration (MIC) assay, broth microdilution per CLSI; assay type: cell-based; conditions: Candida albicans, read-out: Minimum Inhibitory Concentrations against Yeast Isolates, Candida albicans;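 further: two read times 24 hr and 48 hr of incubation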
Procedure, shortened: (§1)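 Read-out is visual: MIC is the lowest compound concentration preventing visible growth after approximately 24-48 hr at 35° C. Testing used CLSI microdilution in MOPS-buffered RPMI (pH 7.0) with serial 1:1 compound dilutions made in DMSO.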

Candida glabrata = assay: as above; assay type: cell-based; conditions: Nakaseomyces glabratus, read-out: Minimum Inhibitory Concentrations against Yeast Isolates, Candida glabrata;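 further: two read times 24 hr and 48 hr of incubation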
Procedure, shortened: as §1

Candida parapsilosis = assay: as above; assay type: cell-based; conditions: Lodderomyces parapsilosis, read-out: Minimum Inhibitory Concentrations against Yeast Isolates, Candida parapsilosis;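 further: two read times 24 hr and 48 hr of incubation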
Procedure, shortened: as §1

[1] = MIC of the example compound alone against C. glabrata in the checkerboard assay, approximately 48 hr, read-out: Methylgene MIC
[2] = test compound alone, C. glabrata, approx. 48 hr at 35° C., read-out: Compound MIC
[3] = 24 hr reading (first value of cell 24 hr/48 hr)
[4] = 48 hr reading (second value of cell 24 hr/48 hr)

Compound	FICI of combination resulting in fluconazole MIC of: 2 ug/mL (C. glabrata; C. glabrata)	FICI of combination resulting in fluconazole MIC of: 4 ug/mL (C. glabrata; C. glabrata)	FICI of combination resulting in fluconazole MIC of: 8 ug/mL (C. glabrata; C. glabrata)	FICI of combination resulting in fluconazole MIC of: 2 ug/mL (value in parenthesis) (C. glabrata; C. glabrata)	FICI of combination resulting in fluconazole MIC of: 4 ug/mL (value in parenthesis) (C. glabrata; C. glabrata)	FICI of combination resulting in fluconazole MIC of: 8 ug/mL (value in parenthesis) (C. glabrata; C. glabrata)	MIC (C. glabrata; [1])	MIC (C. glabrata; [2])	Multiple of compound MIC to synergize fluconazole MIC to 2 ug/mL (C. glabrata)	Multiple of compound MIC to synergize fluconazole MIC to 4 ug/mL (C. glabrata)	Multiple of compound MIC to synergize fluconazole MIC to 8 ug/mL (C. glabrata)	Concentration of Methylgene compound to synergize fluconazole MIC to 2 ug/mL (C. glabrata; C. glabrata)	Concentration of Methylgene compound to synergize fluconazole MIC to 4 ug/mL (C. glabrata; C. glabrata)	Concentration of Methylgene compound to synergize fluconazole MIC to 8 ug/mL (C. glabrata; C. glabrata)	MIC (Candida albicans; [3])	MIC (Candida albicans; [4])	MIC (Candida glabrata; [3])	MIC (Candida glabrata; [4])	MIC (Candida parapsilosis; [3])	MIC (Candida parapsilosis; [4])
O=C(Cc1ccc(CCCCc2cccc(NC(=O)CO)c2)cc1)NO [Example 41, N-hydroxy-2-(4-(4-(3-(2-hydroxyacetamido)phe-nyl)butyl)phenyl)acetamide]	0.563	0.375	0.500	0.516	0.281	0.313	16 µg/mL	16 µg/mL	(½x)	(¼x)	(¼x)	8 µg/mL	4 µg/mL	4 µg/mL	> 32 µg/mL	> 32 µg/mL	4 µg/mL (≈ 11.2 µM)	16 µg/mL (≈ 44.9 µM)	> 32 µg/mL	> 32 µg/mL
CC(=O)Nc1cccc(CCCCc2ccc(CC(=O)NO)cc2)c1 [Example 42, 2-(4-(4-(3-acetamidophenyl)butyl)phenyl)-N-hydroxyacetamide]	0.313	0.375	0.375	0.266	0.281	0.188	16 µg/mL	16 µg/mL	(¼x)	(¼x)	(⅛x)	4 µg/mL	4 µg/mL	2 µg/mL	> 32 µg/mL	> 32 µg/mL	8 µg/mL (≈ 23.5 µM)	16 µg/mL (≈ 47 µM)	> 32 µg/mL	> 32 µg/mL
CN1CCC(C(=O)Nc2cccc(CCCCc3ccc(CC(=O)NO)cc3)c2)CC1 [Example 43, N-(3-(4-(4-(2-(hydroxyamino)-2-oxoethyl)phenyl)butyl)phenyl)-1-methylpiperidine-4-carboxamide]	0.313	0.250	0.313	0.266	0.156	0.125	> 16 µg/mL	> 16 µg/mL	–	–	–	8 µg/mL	4 µg/mL	2 µg/mL	> 64 µg/mL	> 64 µg/mL	16 µg/mL (≈ 37.8 µM)	64 µg/mL (≈ 151 µM)	> 64 µg/mL	> 64 µg/mL
CN(C)CCSCC(=O)Nc1cccc(CCCCc2ccc(CC(=O)NO)cc2)c1 [Example 44, 2-(2-(dimethylamino)ethylthio)-N-(3-(4-(4-(2-(hydroxyamino)-2-oxoethyl)phenyl)butyl)phenyl)acetamide]	0.188	0.250	0.313	0.141	0.156	0.125	> 16 µg/mL	> 16 µg/mL	–	–	–	4 µg/mL	4 µg/mL	2 µg/mL	> 64 µg/mL	> 64 µg/mL	16 µg/mL (≈ 36.1 µM)	64 µg/mL (≈ 144 µM)	64 µg/mL (≈ 144 µM)	> 64 µg/mL
CC(=O)Nc1ccccc1CCCCc1ccc(CC(=O)NO)cc1 [Example 45, 2-(4-(4-(2-acetamidophenyl)butyl)phenyl)-N-hydroxyacetamide]	> 1.063	> 0.625	> 0.750	> 1.016	> 0.531	> 0.563	> 16 µg/mL	> 16 µg/mL	–	–	–	>16 µg/mL	16 µg/mL	16 µg/mL	> 64 µg/mL	> 64 µg/mL	32 µg/mL (≈ 94 µM)	> 64 µg/mL	> 64 µg/mL	> 64 µg/mL
O=C(Cc1ccc(CCCCc2ccccc2NC(=O)CO)cc1)NO [Example 46, N-hydroxy-2-(4-(4-(2-(2-hydroxyacetamido)phe-nyl)butyl)phenyl)acetamide]	0.563	0.625	0.500	0.516	0.531	0.313	> 16 µg/mL	> 16 µg/mL	–	–	–	16 µg/mL	16 µg/mL	8 µg/mL	> 64 µg/mL	> 64 µg/mL	64 µg/mL (≈ 180 µM)	> 64 µg/mL	> 64 µg/mL	> 64 µg/mL
O=C(Cc1ccc(CCCCc2ccc(NC(=O)NCCN3CCOCC3)cc2)cc1)NO [Example 47, N-hydroxy-2-(4-(4-(4-(3-(2-morpholinoethyl)ureido)phenyl)butyl)phenyl)acetamide]	0.563	0.375	0.500	0.516	0.281	0.313	16 µg/mL	16 µg/mL	(½x)	(¼x)	(¼x)	8 µg/mL	4 µg/mL	4 µg/mL	> 32 µg/mL	> 32 µg/mL	4 µg/mL (≈ 8.8 µM)	16 µg/mL (≈ 35.2 µM)	> 32 µg/mL	> 32 µg/mL
